Data on two compounds can be found in patent US9309191B2 (priority 2013, dated 2016).

For the assay, the system named is Magnaporthe grisea. It counts as in vivo. Particulars: rice (Nipponbare); for lesion area of treated plants relative to the lesion area in the non-treated plant: 200 ppm foliar spray, contact with affected seedlings for 6 days; for Lesion Area (%): Concentration 200 ppm foliar spray, table.

Consider `Cc1cc(OCC2CC2)c(C)cc1/N=C/N(C)C` [1-17, N′-(4-cyclopropylmethoxy-2,5-dimethylphenyl)-N,N-dimethylformamidine], for which the “lesion area of treated plants relative to the lesion area in the non-treated plant” value is on record as at most 10% and the “Lesion Area (%)” value is 1-10%.

As to `Cc1cc(OCC2CCCCC2)c(C)cc1N=CN(C)C` [Compound 267, N′-(4-cyclohexylmethoxy-2,5-dimethylphenyl)-N,N-dimethylformamidine], the “lesion area of treated plants relative to the lesion area in the non-treated plant” value is at most 50% and the “Lesion Area (%)” value is reported as 31-50%.
